The nature of one series: in vitro. Particulars: human, Caco-2, pH 7.4.
The next series concerns the target A2A receptor (Homo sapiens, UniProt P29274). Description: Inhibition of cAMP production in HEK cells. In kind it is cell-based. The settings on record: HEK-293 cells with A2A receptor. On the procedure:
When the A2A receptor is activated, is induces the production of cAMP.
HEK-293 cells with a stable transfection of A2A receptor were bought from PerkinElmer® (# ES-011-C). […] Fresh media without the selection marker was added on the day immediately before the experiment to stop selection pressure.
Stimulation buffer b) mimics the human situation by increasing the amount of albumin present in the assay.
Compounds of the present invention were diluted 100× in either of the buffers depending on the assay performed. […] The total volume of the reaction was 20 μl (10 μl of cells, 5 μl of antagonist and 5 μl of agonist). The reaction was finalized by adding 10 μl of 4× EU-cAMP tracer working solution and 10 μl of 4× ULight-anti-cAMP working solution. The TR-FRET signal was measured after 1 hour using a Spectramax Paradigm (Molecular Devices).
Background: Changes in cAMP serve as a functional read-out for many G protein-coupled receptors.

[1] abbreviates: IC50 (nM) (3 nM NECA as agonist, 0.1% BSA), 3 nM NECA as agonist, 0.1% BSA.
[2] abbreviates: IC50 (nM) (5 μM Adenosine as agonist, 2.0% HSA), 5 μM Adenosine as agonist, 2.0% HSA.
[3] abbreviates: IC50 (nM) (5 nM NECA as agonist, 2% HSA), 5 nM NECA as agonist, 2% HSA.

Sequence of A2A receptor (P29274 whole entry): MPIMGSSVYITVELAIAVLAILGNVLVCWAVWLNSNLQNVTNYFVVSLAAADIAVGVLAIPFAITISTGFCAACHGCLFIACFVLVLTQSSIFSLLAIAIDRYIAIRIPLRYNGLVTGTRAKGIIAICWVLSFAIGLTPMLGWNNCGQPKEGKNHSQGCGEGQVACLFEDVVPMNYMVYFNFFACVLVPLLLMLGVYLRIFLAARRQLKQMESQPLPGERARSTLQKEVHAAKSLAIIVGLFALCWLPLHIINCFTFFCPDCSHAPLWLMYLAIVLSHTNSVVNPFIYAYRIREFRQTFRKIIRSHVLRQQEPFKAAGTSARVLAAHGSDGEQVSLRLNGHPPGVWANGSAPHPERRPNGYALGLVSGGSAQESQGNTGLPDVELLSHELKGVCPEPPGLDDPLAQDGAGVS
Experimental for in vitro: 2 μM dosing solutions for reference compounds and test compounds are prepared by spiking the appropriate volume of intermediate solution to TB with and without 1 μM Zosuquidar. The final concentration of DMSO is no more than 1% (v/v).
Caco-2 cells are grown in MEM supplemented with 2 mM L-glutamine, 10% FBS, 100 U/mL penicillin-G and 100 μg/mL streptomycin. The cells are incubated at 37° C., 5% CO2 and relatively saturated humidity. After reaching 80-90% confluency, the cells are gently detached with 0.05% trypsin-EDTA solution.
TB and dosing solutions were pre-warmed to 37° C. before transport assay. The cell monolayer was washed twice with HBSS containing 10 mM HEPES. For A-B (apical to basolateral) directional transport assay, 75 μL dosing solution is added to the apical well. Fill each basolateral well with 250 μL TB. For B-A (basolateral to apical) directional transport assay, 250 μL of dosing solution is added to the basolateral well after filling each apical well with 75 μL TB. […] The plates are incubated for 120 minutes at 37° C. with 5% CO2 and saturated humidity. The time zero samples are generated by mixing 50 μL initial dosing solution of test compound or reference compound with 100 μL TB and 250 μL quench solution (acetonitrile (ACN) or other appropriate solvent with internal standard(s), based on the bioanalytical method development). At 120 minutes, 150 μL of solution is collected from each A-B receiver well followed by addition of 250 μL quench solution to get A-B receiver sample. And for other samples (A-B donor, B-A donor and receiver), 50 μL of solution is collected from each corresponding well followed by addition of 250 μL quench solution and 100 μL TB. All samples are vortex-mixed and centrifuged at 3220 g for 20 minutes. Subsequently, supernatant is diluted with ultra pure water for LC-MS/MS analysis. The concentrations of test compound in all samples are determined by LC-MS/MS and expressed as peak area ratio of analyte to internal standard.
The concentration of samples is expressed using the peak area ratio of Analyte to Internal Standard (Analyte/IS).
The efflux ratio is calculated using the following equation: Efflux ratio=Papp(A−B)/Papp(B−A) • where Papp (A−B) and Papp (B−A) are the Papp values of compound in Apical to Basolateral and Basolateral to Apical directional transport, respectively.

Regarding `C[S@@+]([O-])c1ccc(N2CCN(CCn3c(=O)sc4c3nc(N)n3nc(-c5ccco5)nc43)CC2)c(F)c1` (single isomer, unassigned) [Compound 119], in the series “in vitro”, the efflux ratio at 120 min, 2 μM stood at 31. The IC50 at A2A receptor (setting [1]) came to 0.4 nM; at A2A receptor (setting [2]), 183 nM.

`C[S@+]([O-])c1ccc(N2CCN(CCn3c(=O)sc4c3nc(N)n3nc(-c5ccco5)nc43)CC2)c(F)c1` (single isomer, unassigned) [Compound 120]: in the series “in vitro”, the efflux ratio at 120 min, 2 μM was 33. Besides, the IC50 at A2A receptor (setting [1]) is 0.4 nM; on A2A receptor (setting [2]) it was 123 nM.

Consider `Nc1nc2c(sc(=O)n2CCN2CCN(c3ccc(O[C@H]4CC[S@@+]([O-])CC4)cc3F)CC2)c2nc(-c3ccco3)nn12` (single isomer, unassigned) [Compound 121, 5-amino-3-(2-(4-(2-fluoro-4-(((1s,4s)-1-oxidotetrahydro-2H-thiopyran-4-yl)oxy)phenyl)piperazin-1-yl)ethyl)-8-(furan-2-yl)thiazolo[5,4-e][1,2,4]triazolo[1,5-c]pyrimidin-2(3H)-one], for which the efflux ratio at 120 min, 2 μM in the series “in vitro” was 90. The IC50 was 0.8 nM at A2A receptor (setting [1]) and 232 nM on A2A receptor (setting [2]).

Regarding `Nc1nc2c(sc(=O)n2CCN2CCN(c3ccc(O[C@H]4CC[S@+]([O-])CC4)cc3F)CC2)c2nc(-c3ccco3)nn12` (single isomer, unassigned) [Compound 122, 5-amino-3-(2-(4-(2-fluoro-4-(((1r,4r)-1-oxidotetrahydro-2H-thiopyran-4-yl)oxy)phenyl)piperazin-1-yl)ethyl)-8-(furan-2-yl)thiazolo[5,4-e][1,2,4]triazolo[1,5-c]pyrimidin-2(3H)-one], in “in vitro”, the efflux ratio at 120 min, 2 μM came out at 349. The IC50 is 0.8 nM at A2A receptor (setting [1]) and 187 nM on A2A receptor (setting [2]).

As to `Nc1nc2c(sc(=O)n2CCN2CCN(c3cc(O[C@@H]4CNC[C@H]4F)c(F)cc3F)CC2)c2nc(-c3ccco3)nn12` (stereo in doubt) [Compound 91, 5-amino-3-(2-(4-(2,4-difluoro-5-(((3R,4R)-4-fluoropyrrolidin-3-yl)oxy)phenyl)piperazin-1-yl)ethyl)-8-(furan-2-yl)thiazolo[5,4-e][1,2,4]triazolo[1,5-c]pyrimidin-2(3H)-one], in the series “in vitro”, the efflux ratio at 120 min, 2 μM is 195. The IC50 at A2A receptor (setting [1]) was 0.8 nM; on A2A receptor (setting [2]), 168 nM.

Take `Nc1nc2c(sc(=O)n2CCN2CCN(c3ccc(OCCO)cc3)CC2)c2nc(-c3ccco3)nn12` [Compound 9, 5-amino-8-(furan-2-yl)-3-(2-(4-(4-(2-hydroxyethoxy)phenyl)piperazin-1-yl)ethyl)thiazolo[5,4-e][1,2,4]triazolo[1,5-c]pyrimidin-2(3H)-one]: the efflux ratio at 120 min, 2 μM in the series “in vitro” was 8. The compound further registered an IC50 at A2A receptor (setting [1]) of 3.4 nM.

Turning to `Nc1nc2c(sc(=O)n2CCN2CCN(c3ccc(OCC(=O)O)cc3)CC2)c2nc(-c3ccco3)nn12` [Compound 10, 2-(4-(4-(2-(5-amino-8-(furan-2-yl)-2-oxothiazolo[5,4-e][1,2,4]triazolo[1,5-c]pyrimidin-3(2H)-yl)ethyl)piperazin-1-yl)phenoxy)acetic acid], in “in vitro”, the efflux ratio at 120 min, 2 μM amounted to 24. In addition, the IC50 was found to be 2.3 nM at A2A receptor (setting [1]), 14 nM at A2A receptor (setting [3]) and 607 nM at A2A receptor (setting [2]).

As for `Nc1nc2c(sc(=O)n2CCN2CCN(c3ccc(OCC(=O)N4CCNCC4)cc3F)CC2)c2nc(-c3ccco3)nn12` [Compound 24, 5-amino-3-(2-(4-(2-fluoro-4-(2-oxo-2-(piperazin-1-yl)ethoxy)phenyl)piperazin-1-yl)ethyl)-8-(furan-2-yl)thiazolo[5,4-e][1,2,4]triazolo[1,5-c]pyrimidin-2(3H)-one], in “in vitro”, the efflux ratio at 120 min, 2 μM amounted to 117. Further, the IC50 at A2A receptor (setting [1]) was determined as 0.8 nM; at A2A receptor (setting [3]) it was 2 nM; at A2A receptor (setting [2]), 137 nM.

For `Nc1nc2c(sc(=O)n2CCN2CCN(c3ccc(OCC4CCNCC4)cc3F)CC2)c2nc(-c3ccco3)nn12` [Compound 25, 5-amino-3-(2-(4-(2-fluoro-4-(piperidin-4-ylmethoxy)phenyl)piperazin-1-yl)ethyl)-8-(furan-2-yl)thiazolo[5,4-e][1,2,4]triazolo[1,5-c]pyrimidin-2(3H)-one], in the series “in vitro”, the efflux ratio at 120 min, 2 μM worked out at 472. The IC50 at A2A receptor (setting [1]) was 1.2 nM; at A2A receptor (setting [3]), 6 nM; at A2A receptor (setting [2]) it was 300 nM.

As to `Nc1nc2c(sc(=O)n2CCN2CCN(c3ccc(OCCN4CCNCC4)cc3F)CC2)c2nc(-c3ccco3)nn12` [Compound 27, 5-amino-3-(2-(4-(2-fluoro-4-(2-(piperazin-1-yl)ethoxy)phenyl)piperazin-1-yl)ethyl)-8-(furan-2-yl)thiazolo[5,4-e][1,2,4]triazolo[1,5-c]pyrimidin-2(3H)-one], the efflux ratio at 120 min, 2 μM in “in vitro” was found to be 187. Also, the results for the IC50 at A2A receptor (setting [1]), on A2A receptor (setting [3]) and on A2A receptor (setting [2]) were 0.3 nM, 2 nM and 112 nM, respectively.

As to `NCCNC(=O)c1ccc(N2CCN(CCn3c(=O)sc4c3nc(N)n3nc(-c5ccco5)nc43)CC2)c(F)c1` [Compound 30, 4-(4-(2-(5-amino-8-(furan-2-yl)-2-oxothiazolo[5,4-e][1,2,4]triazolo[1,5-c]pyrimidin-3(2H)-yl)ethyl)piperazin-1-yl)-N-(2-aminoethyl)-3-fluorobenzamide], the efflux ratio at 120 min, 2 μM in “in vitro” was found to be 3. The IC50 was determined as 0.4 nM on A2A receptor (setting [1]), 1 nM at A2A receptor (setting [3]) and 42 nM on A2A receptor (setting [2]).

As for `Nc1nc2c(sc(=O)n2CCN2CCN(c3ccc(C(=O)NCC(O)CO)cc3F)CC2)c2nc(-c3ccco3)nn12` (stereo not drawn) [Compound 34, 4-(4-(2-(5-amino-8-(furan-2-yl)-2-oxothiazolo[5,4-e][1,2,4]triazolo[1,5-c]pyrimidin-3(2H)-yl)ethyl)piperazin-1-yl)-N-(2,3-dihydroxypropyl)-3-fluorobenzamide], in the series “in vitro”, the efflux ratio at 120 min, 2 μM amounted to 192. The IC50 worked out at 0.3 nM at A2A receptor (setting [1]), 6 nM on A2A receptor (setting [3]) and 207 nM on A2A receptor (setting [2]).

Regarding `Nc1nc2c(sc(=O)n2CCN2CCN(c3ccc(CCC(=O)O)cc3F)CC2)c2nc(-c3ccco3)nn12` [Compound 40, 3-(4-(4-(2-(5-amino-8-(furan-2-yl)-2-oxothiazolo[5,4-e][1,2,4]triazolo[1,5-c]pyrimidin-3(2H)-yl)ethyl)piperazin-1-yl)-3-fluorophenyl)propanoic acid], in the series “in vitro”, the efflux ratio at 120 min, 2 μM was found to be 25. Besides, the IC50 is 0.7 nM on A2A receptor (setting [1]), 7 nM at A2A receptor (setting [3]) and 261 nM at A2A receptor (setting [2]).

`NC(=O)CNCCOc1ccc(N2CCN(CCn3c(=O)sc4c3nc(N)n3nc(-c5ccco5)nc43)CC2)c(F)c1` [Compound 45, 2-((2-(4-(4-(2-(5-amino-8-(furan-2-yl)-2-oxothiazolo[5,4-e][1,2,4]triazolo[1,5-c]pyrimidin-3(2H)-yl)ethyl)piperazin-1-yl)-3-fluorophenoxy)ethyl)amino)acetamide]: the efflux ratio at 120 min, 2 μM in “in vitro” is 41. Besides, the values for the IC50 at A2A receptor (setting [1]), on A2A receptor (setting [3]) and at A2A receptor (setting [2]) were 0.8 nM, 3 nM and 100 nM, respectively.

On to `Nc1nc2c(sc(=O)n2CCN2CCN(c3ccc(OC4CCNCC4)cc3F)CC2)c2nc(-c3ccco3)nn12` [Compound 47, 5-amino-3-(2-(4-(2-fluoro-4-(piperidin-4-yloxy)phenyl)piperazin-1-yl)ethyl)-8-(furan-2-yl)thiazolo[5,4-e][1,2,4]triazolo[1,5-c]pyrimidin-2(3H)-one], for which, in “in vitro”, the efflux ratio at 120 min, 2 μM is 329. The IC50 on A2A receptor (setting [1]) worked out at 1.8 nM; at A2A receptor (setting [3]), 1 nM; on A2A receptor (setting [2]), 43 nM.

`Nc1nc2c(sc(=O)n2CCN2CCN(c3ccc(OC4CCNC4)cc3F)CC2)c2nc(-c3ccco3)nn12` (stereo not drawn) [Compound 48, 5-amino-3-(2-(4-(2-fluoro-4-(pyrrolidin-3-yloxy)phenyl)piperazin-1-yl)ethyl)-8-(furan-2-yl)thiazolo[5,4-e][1,2,4]triazolo[1,5-c]pyrimidin-2(3H)-one]: in the series “in vitro”, the efflux ratio at 120 min, 2 μM stood at 166. For the same compound, the values for the IC50 at A2A receptor (setting [1]) and on A2A receptor (setting [2]) were 0.1 nM and 9 nM, respectively.

With `CN(C)CCNC(=O)COc1ccc(N2CCN(CCn3c(=O)sc4c3nc(N)n3nc(-c5ccco5)nc43)CC2)c(F)c1` [Compound 51, 2-(4-(4-(2-(5-amino-8-(furan-2-yl)-2-oxothiazolo[5,4-e][1,2,4]triazolo[1,5-c]pyrimidin-3(2H)-yl)ethyl)piperazin-1-yl)-3-fluorophenoxy)-N-(2-(dimethylamino)ethyl)acetamide], the efflux ratio at 120 min, 2 μM in the series “in vitro” was determined as 469. Also, the results for the IC50 on A2A receptor (setting [1]) and at A2A receptor (setting [2]) were 0.3 nM and 16 nM, respectively.

With `NCCNC(=O)COc1ccc(N2CCN(CCn3c(=O)sc4c3nc(N)n3nc(-c5ccco5)nc43)CC2)c(F)c1` [Compound 52, 2-(4-(4-(2-(5-amino-8-(furan-2-yl)-2-oxothiazolo[5,4-e][1,2,4]triazolo[1,5-c]pyrimidin-3(2H)-yl)ethyl)piperazin-1-yl)-3-fluorophenoxy)-N-(2-aminoethyl)acetamide], the efflux ratio at 120 min, 2 μM in the series “in vitro” is 34. Besides, the IC50 came to 0.3 nM at A2A receptor (setting [1]), 1 nM on A2A receptor (setting [3]) and 26 nM on A2A receptor (setting [2]).

What is called efflux ratio is a quotient of directional permeabilities that is used to spot active efflux. A word on the IC50: it is the point on the concentration scale where inhibition reaches its midpoint. A low value points to greater potency in that assay.

The values above are taken from patent publication US10995101B2, “2-oxo-thiazole derivatives as A2A inhibitors and compounds for use in the treatment of cancers” (iTeos Therapeutics SA, priority 2017, dated 2021).
